Laboratory results as given in patent publication US20250255845A1, “USE OF INTERLEUKIN (IL)-17A INHIBITOR IN PREPARATION OF MEDICAMENT FOR TREATING INFLAMMATORY DISEASE” (Xiangnan University, priority 2024, published 2025).

Test system: IMQ-induced psoriasis mice
Assay: H&E histological evaluation of dorsal skin of IMQ-induced psoriasis mice
Format: in vivo, Balb/c mice
Settings: dose-dependent
Procedure: Balb/c mice (female, 6-8 weeks, 20+2 g), with certificate number [SCXK (Xiang) 2021-0002], were purchased from Hunan SJA Laboratory Animal (Changsha, China). All mice were housed in an specific pathogen free (SPF)-grade animal room with a 12 h light/12 h dark cycle, and experiments were started after the mice were acclimated for one week. Next, 96 mice were randomly divided into 12 groups (8 mice/group), including Control group, Control solvent (white vaseline) group, IMQ group, IMQ solvent (white vaseline) group, preventive administration of positive medicament Clo group (IMQ+Clo 55 mg), therapeutic administration of positive medicament group (IMQ+Clo (A) 55 mg), preventive administration of Tan low-dose group (IMQ+Tan 40 μg/cm^2), medium-dose group (IMQ+Tan160 μg/cm^2), and high-dose group (IMQ+Tan 640 μg/cm^2), and therapeutic administration of Tan low-dose group (IMQ+Tan (A) 40 μg/cm^2), medium-dose group (IMQ+Tan (A) 160 μg/cm^2), and high-dose group (IMQ+Tan (A) 640 μg/cm^2). After the mice were anesthetized, a 2 cm×3 cm area on the back was selected for hair removal. Modeling began 48 h after hair removal, and all modeling mice were applied with 65 mg (55 mg on the back and 5 mg on each ear) of IMQ cream every morning for 10 d. […]

Question: Which “H&E histology of dorsal skin (epidermal thickness, hyperkeratosis, inflammatory infiltration)” value (preventive Tan group vs IMQ group) does the source give for `COc1ccc(-c2cc(=O)c3c(OC)c(OC)c(OC)c(OC)c3o2)cc1` [Tan, tangeretin] here?
Answer: reduced epidermal tissue thickness, reduced hyperkeratosis, and slight inflammatory cellular infiltration

Question: What about the “H&E histology of dorsal skin (epidermal thickness, hyperkeratosis, inflammatory infiltration)” value (therapeutic Tan group, especially high-dose, vs IMQ group) of the same molecule?
Answer: reduced epidermal tissue thickness, reduced hyperkeratosis, and slight inflammatory cellular infiltration
